Source: the supplement of paper PMC10307832

What was measured:
Assay in all cases: relative viability (nuclei count vs DMSO), 5 days (fraction); higher = more cells survive
Daporinad + Crizotinib = compound: O=C(/C=C/c1cccnc1)NCCCCC1CCN(C(=O)c2ccccc2)CC1 [Daporinad] + C[C@@H](Oc1cc(-c2cnn(C3CCNCC3)c2)cnc1N)c1c(Cl)ccc(F)c1Cl [Crizotinib] (partner 1 µM)
How it was run: (§1)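 After 5 days of treatment, lung cancer cells in 1536-well plates were fixed and stained in a single step (final 0.05% Triton X-100, 1% formaldehyde, 1 ug/ml Hoechst) and their nuclei counted on 4× images. Treatment had been applied by pin tool the day after seeding as one drug alone or as a fixed anchor-drug dose with five library-drug doses (not always all listed) in √10 steps. Relative viability is the nuclei count of treated wells divided by that of vehicle wells, and values are medians of duplicate plates.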

R406 + Dasatinib = compound: COc1cc(Nc2ncc(F)c(Nc3ccc4c(n3)NC(=O)C(C)(C)O4)n2)cc(OC)c1OC [R406] + Cc1nc(Nc2ncc(C(=O)Nc3c(C)cccc3Cl)s2)cc(N2CCN(CCO)CC2)n1 [Dasatinib] (partner 0.075 µM)
How it was run: as §1

Daporinad + Olaparib = compound: O=C(/C=C/c1cccnc1)NCCCCC1CCN(C(=O)c2ccccc2)CC1 [Daporinad] + O=C(c1cc(Cc2n[nH]c(=O)c3ccccc23)ccc1F)N1CCN(C(=O)C2CC2)CC1 [Olaparib] (partner 8 µM)
How it was run: as §1

R406 + Lapatinib = compound: COc1cc(Nc2ncc(F)c(Nc3ccc4c(n3)NC(=O)C(C)(C)O4)n2)cc(OC)c1OC [R406] + CS(=O)(=O)CCNCc1ccc(-c2ccc3ncnc(Nc4ccc(OCc5cccc(F)c5)c(Cl)c4)c3c2)o1 [Lapatinib] (partner 2 µM)
How it was run: as §1

| Cell Line | relative viability (Daporinad + Crizotinib; first compound 0.0005 µM) | relative viability (Daporinad + Crizotinib; first compound 0.001581 µM) | relative viability (Daporinad + Crizotinib; first compound 0.005 µM) | relative viability (Daporinad + Crizotinib; first compound 0.01581 µM) | relative viability (R406 + Dasatinib; first compound 0.08 µM) | relative viability (R406 + Dasatinib; first compound 0.253 µM) | relative viability (R406 + Dasatinib; first compound 0.8 µM) | relative viability (R406 + Dasatinib; first compound 2.53 µM) | relative viability (R406 + Dasatinib; first compound 8 µM) | relative viability (Daporinad + Olaparib; first compound 0.0005 µM) | relative viability (Daporinad + Olaparib; first compound 0.001581 µM) | relative viability (Daporinad + Olaparib; first compound 0.005 µM) | relative viability (Daporinad + Olaparib; first compound 0.01581 µM) | relative viability (R406 + Lapatinib; first compound 0.08 µM) | relative viability (R406 + Lapatinib; first compound 0.253 µM) | relative viability (R406 + Lapatinib; first compound 0.8 µM) | relative viability (R406 + Lapatinib; first compound 2.53 µM) | relative viability (R406 + Lapatinib; first compound 8 µM) |
| --- | --- | --- | --- | --- | --- | --- | --- | --- | --- | --- | --- | --- | --- | --- | --- | --- | --- | --- |
| NCI-H2405 | 0.731 | 0.92 | 0.918 | 0.511 | 0.19 | 0.226 | 0.224 | 0.198 | 0.142 | 0.848 | 0.841 | 0.639 | 0.407 | 0.98 | 1.14 | 1.13 | 0.269 | 0.234 |
| NCI-H727 | 0.713 | 0.786 | 0.938 | 0.698 | 0.347 | 0.432 | 0.369 |  | 0.3 | 0.571 | 0.682 | 0.623 | 0.539 | 0.918 | 0.85 | 0.905 | 0.195 | 0.712 |
| NCI-H1915 | 0.911 | 0.933 | 0.982 | 0.915 | 0.301 | 0.321 | 0.31 |  | 0.269 | 0.265 | 0.247 | 0.193 | 0.184 | 0.991 | 1.09 | 1.03 | 0.806 | 0.778 |
| CAL-12T | 0.659 | 0.535 | 0.367 | 0.185 | 0.357 | 0.397 | 0.483 | 0.0973 | 0.0797 | 0.624 | 0.596 | 0.512 | 0.269 | 0.697 | 0.698 | 0.775 | 0.638 | 0.288 |
| LXF-289 | 0.784 | 0.899 | 0.848 | 0.854 | 0.229 | 0.241 | 0.234 | 0.135 | 0.0357 | 0.952 | 1.13 | 0.929 | 0.945 | 0.868 | 1.01 | 0.9 | 0.921 | 0.605 |
| NCI-H520 | 0.789 | 0.726 | 0.258 | 0.114 | 0.209 | 0.235 | 0.223 | 0.198 | 0.189 | 0.261 | 0.202 | 0.221 | 0.153 | 0.733 | 1.03 | 1.02 | 0.241 | 0.133 |
| NCI-H2009 | 1.02 | 1.04 | 1.06 | 0.827 | 0.25 | 0.302 | 0.328 | 0.182 | 0.13 | 0.596 | 0.58 | 0.268 | 0.219 | 0.93 | 1.19 | 1.22 | 0.0976 | 0.261 |
| 201T | 0.954 | 1.05 | 1.04 | 1.03 | 0.578 | 0.548 | 0.502 | 0.467 | 0.41 | 0.802 | 0.856 | 0.807 | 0.806 | 0.868 | 1.06 | 1.02 | 0.95 | 0.905 |
| NCI-H23 | 0.744 | 0.667 | 0.678 | 0.398 | 0.7 | 0.878 | 0.902 |  | 0.748 | 0.221 | 0.245 | 0.238 | 0.172 | 1.12 | 1.54 | 1.28 | 0.589 | 0.593 |
| LOU-NH91 | 0.782 | 0.801 | 0.862 | 0.913 | 0.593 | 0.617 | 0.545 | 0.354 | 0.334 | 0.874 | 0.977 | 0.803 | 0.837 | 0.785 | 0.792 | 0.734 | 0.564 | 0.537 |
| NCI-H2085 | 0.874 | 0.825 | 0.868 | 0.841 | 0.249 | 0.283 | 0.251 | 0.222 | 0.179 | 0.673 |  | 0.629 | 0.629 | 0.783 | 0.851 | 0.894 | 0.52 | 0.591 |
| COR-L23 | 0.819 | 0.651 | 0.568 | 0.153 | 0.464 | 0.469 | 0.598 | 0.379 | 0.158 | 0.156 | 0.245 | 0.19 | 0.155 | 1.02 | 1.09 | 1.49 | 1.05 | 0.47 |
| BEN | 0.849 | 0.879 | 0.91 | 1.1 | 0.337 | 0.312 | 0.309 | 0.413 | 0.31 | 0.827 | 1.02 | 1.02 | 0.914 | 0.627 | 0.75 | 0.735 | 0.791 | 0.602 |
| LK-2 | 0.327 | 0.32 | 0.296 | 0.283 | 0.26 | 0.303 | 0.285 | 0.346 | 0.201 | 0.657 | 0.459 | 0.394 | 0.28 | 0.856 | 1.03 | 0.843 | 0.472 | 0.321 |
| NCI-H322M | 0.847 | 1.03 | 0.985 | 0.592 | 0.237 | 0.245 | 0.26 | 0.24 | 0.208 | 0.547 | 0.567 | 0.547 | 0.516 | 0.543 | 0.51 | 0.647 | 0.335 | 0.343 |
| NCI-H596 | 1.05 | 1.02 | 1.12 | 0.677 | 0.619 | 0.61 | 0.686 | 0.505 | 0.173 | 0.647 | 0.562 | 0.542 | 0.441 | 1.04 | 1.2 | 0.972 | 0.867 | 0.421 |
| ABC-1 | 0.862 | 1.23 | 1.02 | 0.68 | 0.535 | 0.54 | 0.415 | 0.363 | 0.298 | 1 | 0.82 | 0.781 | 0.582 | 0.85 | 1.07 | 1.09 | 0.875 | 0.705 |
| NCI-H1666 | 1.25 | 1.06 | 1.03 | 0.97 | 0.811 | 0.943 | 0.891 | 0.648 | 0.409 | 0.754 | 0.644 | 0.669 | 0.679 | 0.784 | 0.79 | 0.708 | 0.452 | 0.336 |
